Laboratory results from patent publication US11284835B2, “Method for assessing pain caused by administration of drug solution, and method for selecting drug solution administration” (TERUMO KABUSHIKI KAISHA, priority 2016, dated 2022).

Legend:
[1] = system: rat; assay: Electromyogram (EMG) of the myoelectric response caused by drug solution administration into the plantar subcutaneous of anesthetized rats; format: in vivo
Excerpt: In the embodiment illustrated in FIG. 1, a subject (experimental animal) used for assessment of pain caused by administration of a drug solution is a rat 12. Conditions of the rat 12 that can be used are, for example, an age in range of 7 to 10 weeks old, a body weight in a range of 200 to 400 g, and a strain that is SD (other strains are also possible). An acclimation and quarantine period of the rat 12 is preferably five days or longer. An anesthesia mask 13 is attached to the rat 12, and inhalation anesthesia is performed.
In order to measure the pain caused by the administration of the drug solution, a myoelectric potential of the semitendinosus muscle 12b of the thigh of the rat 12 is recorded. At the time of recording the myoelectric potential, a needle-shaped measurement electrode 24 (for example, a bipolar hook electrode) is punctured under the semitendinosus muscle 12b to be placed, and a reference electrode 26 is pasted to a thoracic skin surface 12c. Potential signals from the measurement electrode 24 and the reference electrode 26 are amplified by a high-sensitivity bioelectric amplifier 28 and transmitted to a data collection device 30.
A rat 12 serving as a subject is prepared (a preparation step), and the rat 12 is subjected to inhalation anesthesia (an anesthesia step). Examples of an applicable inhalation anesthetic include isoflurane. […] Incidentally, it is preferable to heat the rat 12 with a warming mat to keep the body temperature constant during the anesthesia.
Next, the measurement electrode 24 is placed in the semitendinosus muscle 12b of the anesthetized rat 12 (a measurement electrode placement step). […] At this time, the thigh skin at a position where contraction has been recognized is incised by about 1 cm to expose the semitendinosus muscle 12b, and then, the measurement electrode 24 is inserted.
Thereafter, the anesthetic depth is kept constant. […]
Once such a myoelectric potential waveform is obtained, the measurement step is performed in order to assess (quantify) the pain caused by the drug solution administration. […]

[2] = system: human; settings: cited from earlier work

Compound	magnitude of pain (EMG intensity) ([1]; 10% NaCl, plurality of different administration rates (FIG. 9B))	pain (EMG intensity obtained from myoelectric response) ([1]; NaCl concentration 5% or more (FIG. 6B))	magnitude of pain (VAS) over time ([2]; 5% NaCl injected (FIG. 6A))	pain (EMG intensity obtained from myoelectric response) ([1]; plurality of different molar concentrations (FIG. 7B))	magnitude of pain (VAS) ([2]; plurality of different molar concentrations (FIG. 7A, created from source graph))
[Cl-].[Na+] [NaCl]	varies depending on a difference in the administration rate	significantly increases	great pain	–	–
N[C@@H](CCC(=O)O)C(=O)O [glutamic acid]	–	–	–	the pain increases as the molar concentration of glutamic acid increases	the pain increases as the molar concentration of glutamic acid increases
